# Assay results taken from ChEMBL document CHEMBL4118212, “Structure-activity relationship of uridine-based nucleoside phosphoramidate prodrugs for inhibition of dengue virus RNA-dependent RNA polymerase” (Bioorg Med Chem Lett, 2018).
# Assays:
# [1] = molecular target: POLRMT (DNA-directed RNA polymerase, mitochondrial) (Homo sapiens, UniProt O00411); test: Inhibition of human POLRMT using 5'-FAM labelled RNA primer/DNA template duplex assessed as single nucleotide incorporation rate at 500 uM after 5 mins by SDS-PAGE analysis relative to control; parameters: scale not given: the % may be the effect or the level left; conditions: probe 5'-FAM labelled RNA primer/DNA template duplex, read-out: Activity
# Nonstructural protein 5 = Nonstructural protein 5 (Dengue virus, UniProt V5TFZ2); test: Inhibition of Dengue virus RdRp activity using 5'-(TCAG)20(TCCAAG)14(TCAG)20-3' as template measured after 120 mins
# [2] = Cytotoxicity against human HepG2 cells after 96 hrs by CCK-8 assay; type: cell-based
# dengue virus type 2 [3] = test: Antiviral activity against Dengue virus 2 infected in human PBMC after 2 days post infection by plaque assay; type: functional, organism-based; conditions: 48 h
# [4] = Mitochondrial toxicity in human PC3 cells assessed as effect on mitochondrial protein synthesis measured after 5 days by ELISA; type: cell-based, PC-3
# [5] = Cytotoxicity against human K562 cells; type: cell-based
# [6] = Cytotoxicity against human MT4 cells; type: cell-based
# dengue virus type 2 [7] = test: Antiviral activity against Dengue virus 2 infected in human HuH7 cells by replicon assay; type: functional, organism-based; conditions: Huh-7
# [8] = Inhibition of recombinant human mitochondrial DNA polymerase gamma expressed in Escherichia coli BL21(DE3) cells assessed as single nucleotide incorporation rate at 100 uM relative to NTP; parameters: scale not given: the % may be the effect or the level left
# dengue virus type 2 [9] = test: Antiviral activity against Dengue virus 2 infected in human PBMC after 24 hrs post infection by plaque assay; type: functional, organism-based
# [10] = molecular target: DNA-directed RNA polymerase, mitochondrial (Homo sapiens, UniProt O00411); test: Inhibition of human full length POLRMT using 32P-RNA primer/DNA template assessed as single nucleotide incorporation rate at 500 uM by SDS-PAGE analysis relative to CTP; parameters: scale not given: the % may be the effect or the level left
# DNA-directed RNA polymerase, mitochondrial, sequence (O00411 whole entry): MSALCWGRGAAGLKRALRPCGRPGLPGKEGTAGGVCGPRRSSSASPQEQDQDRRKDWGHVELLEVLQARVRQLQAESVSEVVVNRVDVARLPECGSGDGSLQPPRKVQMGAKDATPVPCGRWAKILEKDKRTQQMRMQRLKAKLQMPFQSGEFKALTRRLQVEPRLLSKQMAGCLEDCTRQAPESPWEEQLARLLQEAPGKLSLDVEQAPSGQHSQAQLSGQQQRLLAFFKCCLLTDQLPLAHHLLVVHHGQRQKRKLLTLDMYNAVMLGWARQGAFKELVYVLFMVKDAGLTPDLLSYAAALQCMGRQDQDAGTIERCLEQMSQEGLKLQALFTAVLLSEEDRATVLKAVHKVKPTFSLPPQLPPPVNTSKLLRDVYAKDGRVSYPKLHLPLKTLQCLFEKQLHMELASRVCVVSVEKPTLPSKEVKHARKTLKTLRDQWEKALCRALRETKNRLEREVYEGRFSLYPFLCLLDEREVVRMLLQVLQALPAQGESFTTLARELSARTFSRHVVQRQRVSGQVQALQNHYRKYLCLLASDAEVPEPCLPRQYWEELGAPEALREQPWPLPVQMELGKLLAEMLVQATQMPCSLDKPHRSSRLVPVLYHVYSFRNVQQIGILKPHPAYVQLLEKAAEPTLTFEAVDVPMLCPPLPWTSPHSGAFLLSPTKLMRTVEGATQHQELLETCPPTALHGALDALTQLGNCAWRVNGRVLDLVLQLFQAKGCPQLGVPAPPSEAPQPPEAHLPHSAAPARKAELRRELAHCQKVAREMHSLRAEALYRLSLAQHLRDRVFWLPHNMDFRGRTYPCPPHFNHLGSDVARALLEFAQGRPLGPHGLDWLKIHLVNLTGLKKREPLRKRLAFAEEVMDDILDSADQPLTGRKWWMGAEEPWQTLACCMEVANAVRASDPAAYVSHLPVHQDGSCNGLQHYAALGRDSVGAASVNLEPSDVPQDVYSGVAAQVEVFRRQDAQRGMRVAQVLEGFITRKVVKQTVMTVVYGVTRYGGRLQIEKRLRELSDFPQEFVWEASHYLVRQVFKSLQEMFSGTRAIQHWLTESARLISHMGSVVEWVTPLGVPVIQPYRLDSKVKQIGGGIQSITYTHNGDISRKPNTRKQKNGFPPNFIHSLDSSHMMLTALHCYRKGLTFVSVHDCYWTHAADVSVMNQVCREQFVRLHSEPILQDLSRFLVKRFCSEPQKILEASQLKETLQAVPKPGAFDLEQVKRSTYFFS
# Nonstructural protein 5, sequence (V5TFZ2 whole entry): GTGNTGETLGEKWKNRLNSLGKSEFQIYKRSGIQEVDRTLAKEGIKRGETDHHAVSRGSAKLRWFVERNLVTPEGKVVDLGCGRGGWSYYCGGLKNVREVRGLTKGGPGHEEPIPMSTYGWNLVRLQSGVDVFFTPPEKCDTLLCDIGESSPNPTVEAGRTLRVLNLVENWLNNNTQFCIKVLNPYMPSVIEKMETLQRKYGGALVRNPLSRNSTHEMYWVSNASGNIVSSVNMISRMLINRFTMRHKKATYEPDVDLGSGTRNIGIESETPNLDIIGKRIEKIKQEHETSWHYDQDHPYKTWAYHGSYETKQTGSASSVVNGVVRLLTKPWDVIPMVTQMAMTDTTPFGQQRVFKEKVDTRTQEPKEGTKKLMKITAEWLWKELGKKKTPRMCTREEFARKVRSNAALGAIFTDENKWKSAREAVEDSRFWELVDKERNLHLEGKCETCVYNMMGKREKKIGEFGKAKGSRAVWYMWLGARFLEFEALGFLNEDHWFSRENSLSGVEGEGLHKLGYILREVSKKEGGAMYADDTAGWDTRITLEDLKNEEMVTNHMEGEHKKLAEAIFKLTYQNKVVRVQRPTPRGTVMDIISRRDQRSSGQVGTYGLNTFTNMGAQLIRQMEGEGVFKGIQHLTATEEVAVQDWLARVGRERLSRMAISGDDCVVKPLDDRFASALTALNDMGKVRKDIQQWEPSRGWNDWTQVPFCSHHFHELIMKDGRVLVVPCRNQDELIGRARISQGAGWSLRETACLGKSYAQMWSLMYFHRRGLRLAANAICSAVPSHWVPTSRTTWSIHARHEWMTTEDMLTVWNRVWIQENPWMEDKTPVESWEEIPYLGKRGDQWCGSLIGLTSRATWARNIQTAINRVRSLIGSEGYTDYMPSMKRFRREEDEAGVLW
# POLRMT (DNA-directed RNA polymerase, mitochondrial), sequence (O00411 whole entry): as the sequence (O00411 whole entry) above
"activity at 5 min, 500 µM [1]",IC50 (Nonstructural protein 5),SMILES,CC50 at 96 h [2],EC50 (dengue virus type 2 [3]),further results
29.4%,5 µM,C[C@@]1(O)[C@H](O)[C@@H](COP(=O)(O)OP(=O)(O)OP(=O)(O)O)O[C@H]1n1ccc(=O)[nH]c1=O,,,
,,CC#C[C@]1(O)[C@H](n2ccc(=O)[nH]c2=O)O[C@](F)(CO[P@@](=O)(N[C@@H](C)C(=O)OC(C)C)Oc2ccccc2)[C@H]1O,> 50 µM,9 µM,
5.7%,6.6 µM,C[C@]1(O)[C@H](n2ccc(=O)[nH]c2=O)O[C@](F)(COP(=O)(O)OP(=O)(O)OP(=O)(O)O)[C@H]1O [ADAFOSBUVIR 5'-TRIPHOSPHATE],,,
,,C#C[C@]1(O)[C@H](n2ccc(=O)[nH]c2=O)O[C@](F)(CO[P@@](=O)(N[C@@H](C)C(=O)OC(C)C)Oc2ccccc2)[C@H]1O,> 50 µM,0.57 µM,CC50 at 120 h [4]: > 200 µM; CC50 [5]: > 50 µM; CC50 [6]: > 50 µM
1.7%,2.8 µM,CC#C[C@]1(O)[C@H](n2ccc(=O)[nH]c2=O)O[C@](F)(COP(=O)(O)OP(=O)(O)OP(=O)(O)O)[C@H]1O,,,
,,CC(C)OC(=O)[C@H](C)NP(=O)(OC[C@H]1O[C@@H](n2ccc(=O)[nH]c2=O)[C@](C)(O)[C@@H]1O)Oc1ccccc1 (mixture of isomers),> 50 µM,0.19 µM,
,,CC(C)OC(=O)[C@H](C)N[P@](=O)(OC[C@H]1O[C@@H](n2ccc(=O)[nH]c2=O)[C@](C)(F)[C@@H]1O)Oc1ccccc1 [SOFOSBUVIR],> 50 µM,1.2 µM,
2%,15.9 µM,C#C[C@@]1(F)[C@H](O)[C@@H](COP(=O)(O)OP(=O)(O)OP(=O)(O)O)O[C@H]1n1ccc(=O)[nH]c1=O,,,
,,C#C[C@@]1(O)[C@H](O)[C@@H](CO[P@@](=O)(N[C@@H](C)C(=O)OC(C)C)Oc2ccccc2)O[C@H]1n1ccc(=O)[nH]c1=O,> 50 µM,0.45 µM,
,,CC#C[C@@]1(F)[C@H](O)[C@@H](CO[P@@](=O)(N[C@@H](C)C(=O)OC(C)C)Oc2ccccc2)O[C@H]1n1ccc(=O)[nH]c1=O,> 50 µM,,EC50 (dengue virus type 2 [7]): > 100 µM
,,C#C[C@@]1(F)[C@H](O)[C@@H](CO[P@@](=O)(N[C@@H](C)C(=O)OC(C)C)Oc2ccccc2)O[C@H]1n1ccc(=O)[nH]c1=O,> 50 µM,> 25 µM,
6.7%,2 µM,CC#C[C@@]1(O)[C@H](O)[C@@H](COP(=O)(O)OP(=O)(O)OP(=O)(O)O)O[C@H]1n1ccc(=O)[nH]c1=O,,,
1.8%,18 µM,C[C@@]1(F)[C@H](O)[C@@H](COP(=O)(O)OP(=O)(O)OP(=O)(O)O)O[C@H]1n1ccc(=O)[nH]c1=O [GS-461203],,,
16.8%,1.6 µM,C#C[C@@]1(O)[C@H](O)[C@@H](COP(=O)(O)OP(=O)(O)OP(=O)(O)O)O[C@H]1n1ccc(=O)[nH]c1=O,,,
,,CC#C[C@@]1(O)[C@H](O)[C@@H](CO[P@@](=O)(N[C@@H](C)C(=O)OC(C)C)Oc2ccccc2)O[C@H]1n1ccc(=O)[nH]c1=O,> 50 µM,1.9 µM,
3%,0.65 µM,C#C[C@]1(O)[C@H](n2ccc(=O)[nH]c2=O)O[C@](F)(COP(=O)(O)OP(=O)(O)OP(=O)(O)O)[C@H]1O,,,Activity [8]: 0%
2.2%,> 20 µM,CC#C[C@@]1(F)[C@H](O)[C@@H](COP(=O)(O)OP(=O)(O)OP(=O)(O)O)O[C@H]1n1ccc(=O)[nH]c1=O,,,
,,[N-]=[N+]=N[C@]1(CO)O[C@@H](n2ccc(N)nc2=O)[C@H](O)[C@@H]1O [4'-AZIDOCYTIDINE],,,EC50 (dengue virus type 2 [9]): 0.25 µM; Activity [10]: 91%
,,CC(C)OC(=O)[C@H](C)N[P@](=O)(OC[C@@]1(F)O[C@@H](n2ccc(=O)[nH]c2=O)[C@](C)(O)[C@@H]1O)Oc1ccccc1 [ADAFOSBUVIR],> 50 µM,1.1 µM,
